Data: ChEMBL document CHEMBL6153165, “Clozapine as an E3 Ligand for PROTAC Technology” (ACS Med Chem Lett, 2025)
The source made the active and inactive calls. No cut-off for these calls is given here.

Experiments:
MCF7 [1] = assay: Induction of ER-alpha degradation (unknown origin) at 30 uM by measuring ER-alpha to beta actin ratio incubated for 24 hrs Western blotting analysis (reference value: 100%); format: cell-based; settings: Homo sapiens
MCF7 [2] = assay: Induction of ER-alpha degradation (unknown origin) at 30 uM in presence of 4-OHT by measuring ER-alpha to beta actin ratio incubated for 24 hrs Western blotting analysis (reference value: 100%); format: cell-based; settings: Homo sapiens
MCF7 [3] = assay: PROTAC activity at E3-ubiquitin ligase/ER-alpha expressed in human MCF7 cells assessed as decrease in ER-alpha protein level by measuring […] at 0.03 uM incubated for 24 hrs by Western blotting analysis (reference value: 100%); format: cell-based; design: scale not given: the % may be the effect or the level left
MCF7 [4] = assay: PROTAC activity at E3-ubiquitin ligase/ER-alpha expressed in human MCF7 cells assessed as decrease in ER-alpha protein level by measuring […] at 0.1 uM incubated for 24 hrs by Western blotting analysis (reference value: 100%); format: cell-based; design: scale not given: the % may be the effect or the level left
MCF7 [5] = assay: PROTAC activity at E3-ubiquitin ligase/ER-alpha expressed in human MCF7 cells assessed as decrease in ER-alpha protein level by measuring […] at 0.3 uM incubated for 24 hrs by Western blotting analysis (reference value: 100%); format: cell-based; design: scale not given: the % may be the effect or the level left
MCF7 [6] = assay: PROTAC activity at E3-ubiquitin ligase/ER-alpha expressed in human MCF7 cells assessed as decrease in ER-alpha protein level by measuring […] at 1 uM incubated for 24 hrs by Western blotting analysis (reference value: 100%); format: cell-based; design: scale not given: the % may be the effect or the level left
MCF7 [7] = assay: PROTAC activity at E3-ubiquitin ligase/ER-alpha expressed in human MCF7 cells assessed as decrease in ER-alpha protein level by measuring […] at 3 uM incubated for 24 hrs by Western blotting analysis(reference value: 100%); format: cell-based; design: scale not given: the % may be the effect or the level left
MCF7 [8] = assay: PROTAC activity at E3-ubiquitin ligase/ER-alpha expressed in human MCF7 cells assessed as decrease in ER-alpha protein level by measuring […] at 10 uM incubated for 24 hrs by Western blotting analysis (reference value: 100%); format: cell-based; design: scale not given: the % may be the effect or the level left
MCF7 [9] = assay: PROTAC activity at E3-ubiquitin ligase/ER-alpha expressed in human MCF7 cells assessed as decrease in ER-alpha protein level by measuring […] at 30 uM incubated for 24 hrs by Western blotting analysis (reference value: 100%); format: cell-based; design: scale not given: the % may be the effect or the level left
MCF7 [10] = assay: PROTAC activity at E3-ubiquitin ligase/ER-alpha expressed in human MCF7 cells assessed as decrease in ER-alpha protein level by measuring […] at 100 uM incubated for 24 hrs by Western blotting analysis (reference value: 100%); format: cell-based; design: scale not given: the % may be the effect or the level left
MCF7 [11] = assay: PROTAC activity at E3-ubiquitin ligase/ER-alpha expressed in human MCF7 cells assessed as induction of ER-alpha degradation incubated for 24 hrs in presence of MG132 by measuring ER-alpha to beta actin ratio at 30 uM by Western blotting analysis (reference value: 100%); format: cell-based
MCF7 [12] = assay: PROTAC activity at E3-ubiquitin ligase/ER-alpha expressed in human MCF7 cells assessed as induction of ER-alpha degradation incubated for 24 hrs in presence of MG132 by measuring ER-alpha to beta actin ratio at 100 uM by Western blotting analysis (reference value: 100%); format: cell-based
MCF7 [13] = assay: PROTAC activity at E3-ubiquitin ligase/ER-alpha expressed in human MCF7 cells assessed as induction of ER-alpha degradation incubated for 24 hrs in presence of MLN7243 by measuring ER-alpha to beta actin ratio at 30 uM by Western blotting analysis (reference value: 100%); format: cell-based
MCF7 [14] = assay: PROTAC activity at E3-ubiquitin ligase/ER-alpha expressed in human MCF7 cells assessed as induction of ER-alpha degradation incubated for 24 hrs in presence of MLN7243 by measuring ER-alpha to beta actin ratio at 100 uM by Western blotting analysis (reference value: 100%); format: cell-based
MCF7 [15] = assay: PROTAC activity at E3-ubiquitin ligase/ER-alpha expressed in UBR1 knockdown human MCF7 cells assessed as induction of ER-alpha degradation by measuring ER-alpha to beta actin ratio at 30 uM incubated for 24 hrs by Western blotting analysis (reference value: 100%); format: cell-based
MCF7 [16] = assay: PROTAC activity at E3-ubiquitin ligase/ER-alpha expressed in UBR1 knockdown human MCF7 cells assessed as induction of ER-alpha degradation by measuring ER-alpha to beta actin ratio at 100 uM incubated for 24 hrs by Western blotting analysis (reference value: 100%); format: cell-based
MCF7 [17] = assay: PROTAC activity at E3-ubiquitin ligase/ER-alpha expressed in UBR2 knockdown human MCF7 cells assessed as induction of ER-alpha degradation by measuring ER-alpha to beta actin ratio at 30 uM incubated for 24 hrs by Western blotting analysis (reference value: 100%); format: cell-based
MCF7 [18] = assay: PROTAC activity at E3-ubiquitin ligase/ER-alpha expressed in UBR2 knockdown human MCF7 cells assessed as induction of ER-alpha degradation by measuring ER-alpha to beta actin ratio at 100 uM incubated for 24 hrs by Western blotting analysis (reference value: 100%); format: cell-based
MCF7 [19] = assay: PROTAC activity at E3-ubiquitin ligase/ER-alpha expressed in UBR4 knockdown human MCF7 cells assessed as induction of ER-alpha degradation by measuring ER-alpha to beta actin ratio at 30 uM incubated for 24 hrs by Western blotting analysis (reference value: 16%); format: cell-based
MCF7 [20] = assay: PROTAC activity at E3-ubiquitin ligase/ER-alpha expressed in UBR4 knockdown human MCF7 cells assessed as induction of ER-alpha degradation by measuring ER-alpha to beta actin ratio at 100 uM incubated for 24 hrs by Western blotting analysis (reference value: 41%); format: cell-based
MCF7 [21] = assay: PROTAC activity at E3-ubiquitin ligase/ER-alpha expressed in UBR5 knockdown human MCF7 cells assessed as induction of ER-alpha degradation by measuring ER-alpha to beta actin ratio at 30 uM incubated for 24 hrs by Western blotting analysis (reference value: 16%); format: cell-based
MCF7 [22] = assay: PROTAC activity at E3-ubiquitin ligase/ER-alpha expressed in UBR5 knockdown human MCF7 cells assessed as induction of ER-alpha degradation by measuring ER-alpha to beta actin ratio at 100 uM incubated for 24 hrs by Western blotting analysis (reference value: 41%); format: cell-based
MCF7 [23] = assay: PROTAC activity at E3-ubiquitin ligase/ER-alpha expressed in human MCF7 cells assessed as decrease in ER-alpha protein level by measuring ER-alpha to beta actin ratio at 30 uM incubated for 24 hrs Western blotting analysis (reference value: 100%); format: cell-based; design: scale not given: the % may be the effect or the level left
MCF7 [24] = assay: Antiproliferative activity against human MCF7 cells assessed as inhibition of cell viability; format: functional, cell-based; settings: dose 1-100 µM
MCF7 [25] = assay: PROTAC activity at E3-ubiquitin ligase/ER-alpha expressed in human MCF7 cells assessed as induction of ER-alpha degradation incubated for 24 hrs by measuring ER-alpha to beta actin ratio at 30 uM by Western blotting analysis (reference value: 100%); format: cell-based
MCF7 [26] = assay: PROTAC activity at E3-ubiquitin ligase/ER-alpha expressed in human MCF7 cells assessed as induction of ER-alpha degradation incubated for 24 hrs by measuring ER-alpha to beta actin ratio at 100 uM by Western blotting analysis (reference value: 100%); format: cell-based
MCF7 [27] = assay: PROTAC activity at E3-ubiquitin ligase/ER-alpha expressed in human MCF7 cells assessed as induction of ER-alpha degradation by measuring ER-alpha to beta actin ratio at 30 uM incubated for 24 hrs by Western blotting analysis (reference value: 100%); format: cell-based
MCF7 [28] = assay: PROTAC activity at E3-ubiquitin ligase/ER-alpha expressed in human MCF7 cells assessed as induction of ER-alpha degradation by measuring ER-alpha to beta actin ratio at 100 uM incubated for 24 hrs by Western blotting analysis (reference value: 100%); format: cell-based
HEK293 [29] = assay: (§1) PROTAC activity at E3-ubiquitin ligase/Halo-tagged Brazilian click beetle Emerald luciferase expressed in human HEK293 cells assessed as decrease in Halo-ELuc protein level by measuring Halo-Eluc to beta-actin ratio at 0.01 uM incubated for 24 hrs by luciferase based Western blotting analysis (reference value: 100%); format: cell-based; design: scale not given: the % may be the effect or the level left
HEK293 [30] = assay: as §1, with “0.1” for “0.01”; format: cell-based; design: scale not given: the % may be the effect or the level left
HEK293 [31] = assay: as §1, with “1” for “0.01”; format: cell-based; design: scale not given: the % may be the effect or the level left
HEK293 [32] = assay: as §1, with “10” for “0.01”; format: cell-based; design: scale not given: the % may be the effect or the level left
HEK293 [33] = assay: as §1, with “20” for “0.01”; format: cell-based; design: scale not given: the % may be the effect or the level left
HEK293 [34] = assay: PROTAC activity at E3-ubiquitin ligase/Halo-tagged Brazilian click beetle Emerald luciferase expressed in human HEK293 cells assessed as decrease in Halo-ELuc protein level pretreated with 1-chlorohexane for 2 hrs followed by compound addition and measured after 24 hrs by competitive assay; format: cell-based
HEK293 [35] = assay: PROTAC activity at E3-ubiquitin ligase/Halo-tagged Brazilian click beetle Emerald luciferase expressed in human HEK293 cells assessed as decrease in Halo-ELuc protein level pretreated with compound followed by 1-chlorohexane addition and measured after 24 hrs by competitive assay; format: cell-based

## CN1CCN(C2=Nc3cc(Cl)ccc3Nc3ccccc32)CC1
MCF7 [1]
  Activity: 104%
MCF7 [2]
  Activity: 91%

## CC/C(=C(\c1ccc(O)cc1)c1ccc(OCCN(C)C)cc1)c1ccccc1
MCF7 [1]
  Activity: 116%

## CC/C(=C(/c1ccc(O)cc1)c1ccc(OCCN(C)C(=O)CCC(=O)NCCOCCOCCOCCN2CCN(C3=Nc4cc(Cl)ccc4Nc4ccccc43)CC2)cc1)c1ccccc1
MCF7 [3]
  Activity: 122%
MCF7 [4]
  Activity: 132%
MCF7 [5]
  Activity: 148%
MCF7 [6]
  Activity: 160%
MCF7 [7]
  Activity: 160%
MCF7 [8]
  Activity: 116%
MCF7 [9]
  Activity: 42%
MCF7 [10]
  Activity: 33%
MCF7 [11]
  Activity: 163%
MCF7 [12]
  Activity: 152%
MCF7 [13]
  Activity: 121%
MCF7 [14]
  Activity: 104%
MCF7 [15]
  Activity: 14%
MCF7 [16]
  Activity: 28%
MCF7 [17]
  Activity: 27%
MCF7 [18]
  Activity: 40%
MCF7 [19]
  Activity: 1%
MCF7 [20]
  Activity: 21%
MCF7 [21]
  Activity: 45%
MCF7 [22]
  Activity: 51%
MCF7 [23]
  Activity: 37%
MCF7 [24]
  Activity: Dose-dependent-effect
MCF7 [25]
  Activity: 51%
MCF7 [26]
  Activity: 27%
MCF7 [27]
  Activity: 16%
MCF7 [28]
  Activity: 41%

## ClCCCCCCOCCOCCN1CCN(C2=Nc3cc(Cl)ccc3Nc3ccccc32)CC1
HEK293 [29]
  Activity: 103%
HEK293 [30]
  Activity: 97%
HEK293 [31]
  Activity: 57%
HEK293 [32]
  Activity: 32%
HEK293 [33]
  Activity: 22%
HEK293 [34]
  Activity: inactive
HEK293 [35]
  Activity: Not active; Complete Recovery Of Luminescence Not Observed
